Test results as given in patent US20240307365A1, “Pharmaceutical Composition for Preventing or Treating Systemic Sclerosis” (Daewoong Pharmaceutical Co., Ltd., priority 2021, published 2024).
“And” between values parts separate entries of the source, which are not always exact repeats. Identical values can stand only once.

Experiments:
[1] = test system: 3D skin organoid prepared using iPSC-derived fibroblasts from patients with systemic dermatosis; assay: Skin hardening alleviation in 3D skin organoid model (thickness by H&E staining); format: cell-based; details: 1 μM in DMSO solution, control DMSO only (FIG. 1)
Method: A 3D skin organoid was prepared using iPSC-derived fibroblasts from patients with systemic dermatosis according to the method described in the literature (Lancet. 2009 Nov. 21;374(9703):1745-53). When 1 μM of active ingredient was treated with DMSO solution, it was confirmed through H&E immunochemical staining that the thickness of the 3D skin organoid was reduced (FIG. 1). The control group was treated with only DMSO.

[2] = test system: mouse model of systemic scleroderma skin organoid transplantation; assay: Skin hardening alleviation in 3D skin organoid transplantation mouse model (skin thickness, fibrosis factors by immunochemical staining); format: in vivo, SCID mice; details: daily for 2 weeks
From the text: The previously constructed 3D skin organoid derived from the systemic scleroderma patient iPSC was transplanted into SCID mice to construct a mouse model of systemic scleroderma. The mouse skin tissue was cut into 1×2 cm, and then 3D skin organoid skin tissue was sutured to the mouse skin. For a skin transplantation method, it was transplanted to mice or the like using a tie-over dressing method used clinically. After placing a gauze on the suture site, it was tied with a suture and dressed with a band.
The active ingredient was subcutaneously administered at a dose of 3 mg/kg and 10 mg/kg daily for 2 weeks to a mouse model of systemic scleroderma skin organoid transplantation. For the negative control group (NC), a physiological saline was administered to a normal skin tissue, and for the positive control group (SSc), a physiological saline was administered to a systemic scleroderma skin organoid transplanted skin tissue. The skin thickness, which is the primary evaluation index of systemic scleroderma, was measured through immunochemical staining, and the results are shown in FIG. 2.
To confirm whether the fibrosis factor is reduced in systemic scleroderma skin tissue by the active ingredient, immunochemical staining was performed and the results are shown in FIG. 3.

[3] = test system: systemic sclerosis-associated interstitial lung disease (SSc-ILD) mouse model administered with BLM; assay: SSc-ILD bleomycin osmotic pump mouse model: body weight (%); format: in vivo, C57BL/6 mice; details: for Body weight (%) change: individual animals 1-9
From the text: (§1) Seven-week-old C57BL/6 mice were obtained and acclimatized indoors for 5 days or more. For the systemic sclerosis-related interstitial lung disease model, an osmotic pump injection model was designed. For that reason, if it is not modeling using an osmotic pump, it is a model in which BLM should be injected subcutaneously into the back of the test animal every day for 4 weeks, and this is because these tests can cause very extreme pain at the site of administration.
(§2) The incision site was sutured, an osmotic pump was inserted, bleomycin was administered for 1 week, and then the osmotic pump was removed on the 10th day. It was confirmed that systemic sclerosis-associated interstitial lung disease was induced in a mouse model administered with BLM for 1 week, and specific experimental groups are shown in Table 1 below.

[4] = test system: systemic sclerosis-associated interstitial lung disease (SSc-ILD) mouse model administered with BLM; assay: SSc-ILD bleomycin osmotic pump mouse model: lung weight; format: in vivo, C57BL/6 mice; design: Lung weight: unit not given here; details: for Lung weight: individual animals 1-9, unit not given
From the text: as §1, §2

[5] = test system: systemic sclerosis-associated interstitial lung disease (SSc-ILD) mouse model administered with BLM; assay: SSc-ILD bleomycin osmotic pump mouse model: lung function evaluation (SpO2); format: in vivo, C57BL/6 mice
From the text: as §1, §2
This lung function evaluation is an experiment to show the therapeutic effect of this active substance in patients with systemic sclerosis-associated interstitial lung diseases, and is the most direct and important evaluation index that has the greatest influence on the symptoms and quality of life of patients with systemic sclerosis-associated interstitial lung diseases, unlike the general pulmonary fibrosis ameliorating effect. This is an experiment that can most directly show the effect of improving lung function in an animal model of systemic sclerosis-associated interstitial lung disease by measuring the oxygen concentration in the body.
On the 21st day, it was measured with a SpO2 measuring device (Berry, Veterinary Pulse Oximeter) via the abdominal side of the mouse, and the results are shown in Table 5 and FIG. 3.

[6] = test system: systemic sclerosis-associated interstitial lung disease (SSc-ILD) mouse model administered with BLM; assay: SSc-ILD bleomycin osmotic pump mouse model: skin thickness (H&E, MT stain); format: in vivo, C57BL/6 mice; details: day 28; for Skin thickness: individual animals 1-9
From the text: as §1, §2
On the day 28, skin tissues were extracted from mice and subjected to H&E and Mansson's Trichrome (MT stain). The skin thickness of 10 sites was measured randomly through the image of the photograph in which stain progressed (progressed at a minimum interval of 200˜300 um). The entire area of the photograph was measured as evenly as possible, and the areas where the stain tissue was damaged were excluded from the measurement.

[7] = test system: systemic sclerosis-associated interstitial lung disease (SSc-ILD) mouse model administered with BLM; assay: SSc-ILD bleomycin osmotic pump mouse model: collagen content (hydroxyproline) in skin tissue; format: in vivo, C57BL/6 mice; details: for hydroxyproline value, ratio compared to a normal group: skin tissue, individual animals 1-9
From the text: as §1, §2
An attempt was made to measuring the amount of hydroxyproline in the mouse and thus indirectly measure the collagen content. Analysis was performed using INSOLUBLE Collagen Assay (Biocolor, S2000), and the details are as follows.
First, 10 mg of frozen skin tissue was pulverized with 100 ul of fragmentation reagent. 100 ul of 37% HCl was added and incubated at 65° C. for 3 hours. The contents of the tube were shaken at 30 minute intervals to aid tissue disintegration. Centrifugation was performed at 12,000 rpm for 10 minutes. After centrifugation, it was transferred to a 1.5 ml tube. 50 ul was taken from a sample between 10 and 100 ul, distilled water was added, and the sample was prepared so as to match with 100 ul.
1 ml of dye was added to 100 ul of the prepared sample, and mixed for 30 minutes. The mixture was centrifuged at 12,000 rpm for 10 minutes, and then transferred to a new tube. The dye was removed with 750 ul of ice-cold acid-salt wash reagent. After centrifugation at 12,000 rpm for 10 minutes, it was transferred to a new tube. The tube was mixed with the collagen-binding dye using a vortex mixer, and gollagen binding dye was dissolved within 10 minutes to complete the measurement preparation (measurement should be completed within 2˜3 hours). The tube cap was closed until it was ready to measure absorbance.
200 ul of each sample was transferred to an individual well of a 96 micro-well plate, and the absorbance was measured at 560 nm.

[8] = 3 and 10 mg/kg subcutaneous, immunochemical staining, *p<0.05, ***p<0.001 (FIG. 3)

O[C@H]1CCCN[C@@H]1CCCn1cnc2c(Cl)c(Cl)ccc21 [Active ingredient]
thickness of the 3D skin organoid [1]: reduced
thickness of the skin tissue ([2]; 3 mg/kg and 10 mg/kg subcutaneous, ***p<0.001 (FIG. 2)): significantly reduced
fibrotic factor Collagen I in skin tissue [2, 8]: significantly reduced
fibrotic factor Collagen III in skin tissue [2, 8]: significantly reduced
fibrotic factor aSMA in skin tissue [2, 8]: significantly reduced
Body weight (%) change ([3]; 3 mg/kg oral, 28 days): −2.45% and −2.14% and 1.34% and −0.33% and −1.93% and 8.65% and 3.02% and −0.36% and 1.07%
Body weight (%) change ([3]; 10 mg/kg oral, 28 days): 4.62% and 2.54% and 1.96% and −4.1% and −2.48% and 0.48% and 0.14% and 4.88% and 4.78%
Body weight (%) change ([3]; 30 mg/kg oral, 28 days): 12.09% and 7.78% and 2.13% and 2.34% and 1.45% and 9.52% and 5.35% and −2.86% and 7.57%
body weight compared to the vehicle ([3]; 30 mg/kg oral, 28 days, p<0.01): significantly increased
changes in body weight, significance ([3]; from 3 mg/kg oral, 28 days): significant results
Lung weight ([4]; 3 mg/kg oral): 1.01 and 1.14 (2×) and 1.08 (2×) and 0.98 (2×) and 1.15 and 0.92
Lung weight ([4]; 10 mg/kg oral): 0.98 and 1.22 and 1.14 and 1.12 and 0.95 and 1.16 and 0.99 and 0.93 and 1.08
change in lung weight corrected by body weight, significance ([4]; 30 mg/kg oral): significance increased to p<0.01
Lung weight ([4]; 30 mg/kg oral): 1.10 and 0.99 and 0.90 and 0.98 (2×) and 1.03 and 0.94 and 1.09 and 0.97
change in lung weight corrected by body weight, significance ([4]; from 10 mg/kg oral): showed a significance
change in lung weight, significance ([4]; only at 30 mg/kg oral): significant tendency
oxygen saturation recovery rate versus nintedanib (60 mg/kg) group ([5]; 30 mg/kg oral, day 21): comparable to that of nintedanib
SpO2 (oxygen saturation) compared with the vehicle ([5]; 30 mg/kg oral, day 21, p<0.001): higher oxygen saturation
SpO2 (oxygen saturation), significance ([5]; from 10 mg/kg oral, day 21 (FIG. 7)): significant results
density of collagen in the skin (MT stain) ([6]; 3 mg/kg oral): tendency to decrease
skin thickness, significance ([6]; 3 mg/kg oral): did not significantly decrease
Skin thickness ([6]; 3 mg/kg oral): 809.254 μm and 771.562 μm and 778.660 μm and 688.725 μm and 759.037 μm and 677.319 μm and 744.986 μm and 904.141 μm and 641.841 μm
skin thickness improvement effect compared with 60 mg/kg of nintedanib ([6]; 10 mg/kg oral): superior
Skin thickness ([6]; 10 mg/kg oral): 526.170 μm and 521.027 μm and 425.415 μm and 456.862 μm and 672.616 μm and 593.826 μm and 601.558 μm and 809.106 μm and 708.308 μm
skin thickness, significance ([6]; 30 mg/kg oral, P<0.0001 or less): very significant results
Skin thickness ([6]; 30 mg/kg oral): 475.515 μm and 412.271 μm and 525.311 μm and 593.963 μm and 526.388 μm and 443.336 μm and 601.558 μm and 558.530 μm and 479.961 μm
collagen density in the skin (MT stain) ([6]; active ingredient administered as a whole): decreased
skin thickness, significance ([6]; from 10 mg/kg oral): significant results
hydroxyproline value, ratio compared to a normal group ([7]; 3 mg/kg oral): 1.51 (2×) and 1.96 and 1.66 and 1.94 and 1.85 and 1.74 and 1.57 and 2.01
hydroxyproline value, ratio compared to a normal group ([7]; 10 mg/kg oral): 2.27 and 2.26 (2×) and 1.70 and 1.93 and 1.57 and 2.16 and 1.82 and 2.10
amount of hydroxyproline in the skin, significance ([7]; 30 mg/kg oral, P<0.001 or less): very significant result
hydroxyproline value, ratio compared to a normal group ([7]; 30 mg/kg oral): 1.70 and 1.48 and 1.81 and 2.04 and 2.09 (2×) and 1.75 and 1.77 and 1.28
amount of hydroxyproline in the skin, significance ([7]; from 10 mg/kg oral): significant results

COC(=O)c1ccc2c(c1)NC(=O)/C2=C(\Nc1ccc(N(C)C(=O)CN2CCN(C)CC2)cc1)c1ccccc1 [NIN, Nintedanib, reference compound]
Body weight (%) change ([3]; nintedanib 60 mg/kg oral): −0.45% and 0.58% and 8.79% and 0.44% and −2.94% and 2.46% and 4.14% and 1.78% and 4.49%
Lung weight ([4]; nintedanib 60 mg/kg oral): 0.96 and 0.99 (2×) and 1.04 and 0.95 and 1.01 and 0.98 and 1.16 and 0.89
Skin thickness ([6]; nintedanib 60 mg/kg oral): 675.558 μm and 623.019 μm and 651.831 μm and 660.809 μm and 649.479 μm and 620.302 μm and 651.572 μm and 856.355 μm and 664.973 μm
hydroxyproline value, ratio compared to a normal group ([7]; nintedanib 60 mg/kg oral): 1.34 and 1.83 and 1.63 and 1.53 and 1.08 and 1.37 and 1.43 and 1.65 and 1.45
